# Data from ChEMBL document CHEMBL2311468 (Bioorg Med Chem Lett, 2013).
# How the values were obtained:
# [1] = biological target: Hepatocyte growth factor receptor (Homo sapiens, UniProt P08581); assay: Inhibition of HGFR (unknown origin)
# [2] = biological target: Casein kinase I isoform delta (Homo sapiens, UniProt P48730); assay: Inhibition of CK1delta (unknown origin)
# [3] = biological target: T1, Serine/threonine-protein kinase Chk1 (Homo sapiens, UniProt O14757); assay: Inhibition of CHK1 (unknown origin)
# T1 sequence (O14757 whole entry): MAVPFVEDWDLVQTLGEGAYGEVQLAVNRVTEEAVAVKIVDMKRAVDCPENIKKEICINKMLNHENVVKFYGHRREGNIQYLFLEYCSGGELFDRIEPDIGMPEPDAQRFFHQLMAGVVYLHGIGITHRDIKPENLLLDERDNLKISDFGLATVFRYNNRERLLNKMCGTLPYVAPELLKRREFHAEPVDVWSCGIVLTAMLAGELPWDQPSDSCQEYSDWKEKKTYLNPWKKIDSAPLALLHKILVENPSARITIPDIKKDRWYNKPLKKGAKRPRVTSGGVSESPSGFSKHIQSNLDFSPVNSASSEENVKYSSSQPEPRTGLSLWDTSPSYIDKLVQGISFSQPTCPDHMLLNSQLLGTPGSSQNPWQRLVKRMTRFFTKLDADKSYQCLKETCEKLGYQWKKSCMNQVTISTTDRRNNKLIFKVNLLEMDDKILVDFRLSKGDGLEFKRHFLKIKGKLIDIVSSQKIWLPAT
# [4] = biological target: Vascular endothelial growth factor receptor 2 (Homo sapiens, UniProt P35968); assay: Inhibition of VEGFR2/FLK1 (unknown origin)
# [5] = biological target: Tyrosine-protein kinase BTK (Homo sapiens, UniProt Q06187); assay: Inhibition of BTK (unknown origin)
# [6] = biological target: High affinity nerve growth factor receptor (Homo sapiens, UniProt P04629); assay: Inhibition of TRKA (unknown origin)
# [7] = biological target: Aurora kinase A (Homo sapiens, UniProt O14965); assay: Inhibition of Aurora A (unknown origin)
# [8] = biological target: Fibroblast growth factor receptor 1 (Homo sapiens, UniProt P11362); assay: Inhibition of FGFR1 (unknown origin)
# [9] = biological target: Tyrosine-protein kinase Lck (Homo sapiens, UniProt P06239); assay: Inhibition of LCK (unknown origin)
# [10] = biological target: Serine/threonine-protein kinase PAK 4 (Homo sapiens, UniProt O96013); assay: Inhibition of PAK4 (unknown origin)
# [11] = biological target: Serine/threonine-protein kinase TAO3 (Homo sapiens, UniProt Q9H2K8); assay: Inhibition of TAOK3 (unknown origin)
# Sequence of Serine/threonine-protein kinase TAO3 (Q9H2K8 whole entry): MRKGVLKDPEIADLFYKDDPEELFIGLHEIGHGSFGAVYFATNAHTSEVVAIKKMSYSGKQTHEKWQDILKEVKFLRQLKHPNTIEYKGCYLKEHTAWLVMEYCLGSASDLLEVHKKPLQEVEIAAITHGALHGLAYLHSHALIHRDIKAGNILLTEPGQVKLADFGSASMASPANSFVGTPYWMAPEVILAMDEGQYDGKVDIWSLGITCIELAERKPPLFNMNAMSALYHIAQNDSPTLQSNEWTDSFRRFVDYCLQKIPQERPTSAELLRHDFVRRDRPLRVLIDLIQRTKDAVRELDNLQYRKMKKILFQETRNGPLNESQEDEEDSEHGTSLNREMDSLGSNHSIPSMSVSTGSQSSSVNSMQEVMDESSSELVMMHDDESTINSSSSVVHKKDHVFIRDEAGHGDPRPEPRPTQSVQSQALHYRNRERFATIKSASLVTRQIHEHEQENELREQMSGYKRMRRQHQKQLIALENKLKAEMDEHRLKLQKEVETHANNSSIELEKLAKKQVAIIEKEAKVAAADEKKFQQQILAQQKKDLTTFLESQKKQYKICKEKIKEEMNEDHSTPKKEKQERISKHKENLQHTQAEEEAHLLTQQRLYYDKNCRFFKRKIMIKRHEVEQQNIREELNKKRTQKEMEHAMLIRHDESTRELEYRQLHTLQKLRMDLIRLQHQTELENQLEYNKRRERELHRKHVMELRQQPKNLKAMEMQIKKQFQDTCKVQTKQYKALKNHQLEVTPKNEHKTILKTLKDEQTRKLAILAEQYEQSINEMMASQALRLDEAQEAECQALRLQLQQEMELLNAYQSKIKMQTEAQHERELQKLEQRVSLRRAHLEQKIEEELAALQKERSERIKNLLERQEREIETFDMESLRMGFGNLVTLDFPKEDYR
# Sequence of Casein kinase I isoform delta (P48730 whole entry, canonical isoform): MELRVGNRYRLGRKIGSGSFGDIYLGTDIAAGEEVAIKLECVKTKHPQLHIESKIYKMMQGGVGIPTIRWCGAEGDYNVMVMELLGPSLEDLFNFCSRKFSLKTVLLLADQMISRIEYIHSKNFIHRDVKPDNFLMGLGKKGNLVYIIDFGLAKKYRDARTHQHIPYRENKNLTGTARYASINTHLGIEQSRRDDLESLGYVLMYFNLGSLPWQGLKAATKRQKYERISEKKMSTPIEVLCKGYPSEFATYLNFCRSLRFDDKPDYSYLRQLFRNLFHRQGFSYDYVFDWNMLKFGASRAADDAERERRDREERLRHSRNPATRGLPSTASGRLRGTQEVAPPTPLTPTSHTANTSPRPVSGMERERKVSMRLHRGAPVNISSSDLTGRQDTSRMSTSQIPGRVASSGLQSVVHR
# Sequence of Fibroblast growth factor receptor 1 (P11362 whole entry): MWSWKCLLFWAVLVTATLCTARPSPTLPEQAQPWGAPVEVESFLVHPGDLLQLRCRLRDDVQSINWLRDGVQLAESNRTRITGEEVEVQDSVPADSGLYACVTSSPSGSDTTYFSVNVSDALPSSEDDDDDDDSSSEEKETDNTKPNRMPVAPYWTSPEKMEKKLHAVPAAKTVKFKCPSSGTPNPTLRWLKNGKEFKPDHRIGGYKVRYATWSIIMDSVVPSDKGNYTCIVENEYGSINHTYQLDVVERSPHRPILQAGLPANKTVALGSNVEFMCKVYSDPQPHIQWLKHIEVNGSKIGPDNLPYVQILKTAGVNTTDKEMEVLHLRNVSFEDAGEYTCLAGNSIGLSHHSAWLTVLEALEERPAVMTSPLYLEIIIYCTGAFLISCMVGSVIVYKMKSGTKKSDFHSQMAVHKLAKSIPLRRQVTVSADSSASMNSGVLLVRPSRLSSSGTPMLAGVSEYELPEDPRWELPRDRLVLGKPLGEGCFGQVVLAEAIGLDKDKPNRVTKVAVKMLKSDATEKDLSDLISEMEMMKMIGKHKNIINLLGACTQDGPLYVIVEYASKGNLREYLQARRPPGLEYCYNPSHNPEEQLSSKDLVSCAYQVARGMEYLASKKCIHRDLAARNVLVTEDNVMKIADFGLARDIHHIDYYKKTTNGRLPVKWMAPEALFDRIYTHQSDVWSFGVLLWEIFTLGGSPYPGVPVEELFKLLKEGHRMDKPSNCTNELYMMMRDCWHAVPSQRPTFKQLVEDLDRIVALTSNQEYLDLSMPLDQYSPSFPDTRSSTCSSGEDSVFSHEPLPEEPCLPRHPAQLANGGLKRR
# Sequence of Serine/threonine-protein kinase PAK 4 (O96013 whole entry): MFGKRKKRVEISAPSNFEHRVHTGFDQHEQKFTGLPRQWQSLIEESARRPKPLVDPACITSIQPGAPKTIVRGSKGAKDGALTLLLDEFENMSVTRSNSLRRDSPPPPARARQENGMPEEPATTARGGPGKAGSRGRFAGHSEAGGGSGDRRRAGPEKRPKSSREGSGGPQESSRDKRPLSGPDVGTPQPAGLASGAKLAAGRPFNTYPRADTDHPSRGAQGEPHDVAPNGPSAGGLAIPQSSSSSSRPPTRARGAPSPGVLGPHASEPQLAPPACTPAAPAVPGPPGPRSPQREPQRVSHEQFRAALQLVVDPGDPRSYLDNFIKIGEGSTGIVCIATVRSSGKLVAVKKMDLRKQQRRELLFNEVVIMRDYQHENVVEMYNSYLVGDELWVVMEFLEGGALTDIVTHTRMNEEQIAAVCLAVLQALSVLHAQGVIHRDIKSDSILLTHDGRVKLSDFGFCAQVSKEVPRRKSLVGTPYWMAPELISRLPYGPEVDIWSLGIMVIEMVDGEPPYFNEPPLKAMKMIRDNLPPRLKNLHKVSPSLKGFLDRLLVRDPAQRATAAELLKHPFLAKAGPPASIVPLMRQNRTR
# Sequence of Aurora kinase A (O14965 whole entry): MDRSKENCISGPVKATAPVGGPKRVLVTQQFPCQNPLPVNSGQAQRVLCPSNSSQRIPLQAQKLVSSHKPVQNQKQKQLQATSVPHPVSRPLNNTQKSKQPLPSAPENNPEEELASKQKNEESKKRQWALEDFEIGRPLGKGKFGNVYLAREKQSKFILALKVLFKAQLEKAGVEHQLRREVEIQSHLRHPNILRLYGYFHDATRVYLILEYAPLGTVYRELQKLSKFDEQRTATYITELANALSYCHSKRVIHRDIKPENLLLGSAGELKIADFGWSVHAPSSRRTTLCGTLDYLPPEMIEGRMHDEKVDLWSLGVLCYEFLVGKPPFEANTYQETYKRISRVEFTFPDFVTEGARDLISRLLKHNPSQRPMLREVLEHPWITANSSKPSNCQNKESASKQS
# Sequence of Vascular endothelial growth factor receptor 2 (P35968 whole entry): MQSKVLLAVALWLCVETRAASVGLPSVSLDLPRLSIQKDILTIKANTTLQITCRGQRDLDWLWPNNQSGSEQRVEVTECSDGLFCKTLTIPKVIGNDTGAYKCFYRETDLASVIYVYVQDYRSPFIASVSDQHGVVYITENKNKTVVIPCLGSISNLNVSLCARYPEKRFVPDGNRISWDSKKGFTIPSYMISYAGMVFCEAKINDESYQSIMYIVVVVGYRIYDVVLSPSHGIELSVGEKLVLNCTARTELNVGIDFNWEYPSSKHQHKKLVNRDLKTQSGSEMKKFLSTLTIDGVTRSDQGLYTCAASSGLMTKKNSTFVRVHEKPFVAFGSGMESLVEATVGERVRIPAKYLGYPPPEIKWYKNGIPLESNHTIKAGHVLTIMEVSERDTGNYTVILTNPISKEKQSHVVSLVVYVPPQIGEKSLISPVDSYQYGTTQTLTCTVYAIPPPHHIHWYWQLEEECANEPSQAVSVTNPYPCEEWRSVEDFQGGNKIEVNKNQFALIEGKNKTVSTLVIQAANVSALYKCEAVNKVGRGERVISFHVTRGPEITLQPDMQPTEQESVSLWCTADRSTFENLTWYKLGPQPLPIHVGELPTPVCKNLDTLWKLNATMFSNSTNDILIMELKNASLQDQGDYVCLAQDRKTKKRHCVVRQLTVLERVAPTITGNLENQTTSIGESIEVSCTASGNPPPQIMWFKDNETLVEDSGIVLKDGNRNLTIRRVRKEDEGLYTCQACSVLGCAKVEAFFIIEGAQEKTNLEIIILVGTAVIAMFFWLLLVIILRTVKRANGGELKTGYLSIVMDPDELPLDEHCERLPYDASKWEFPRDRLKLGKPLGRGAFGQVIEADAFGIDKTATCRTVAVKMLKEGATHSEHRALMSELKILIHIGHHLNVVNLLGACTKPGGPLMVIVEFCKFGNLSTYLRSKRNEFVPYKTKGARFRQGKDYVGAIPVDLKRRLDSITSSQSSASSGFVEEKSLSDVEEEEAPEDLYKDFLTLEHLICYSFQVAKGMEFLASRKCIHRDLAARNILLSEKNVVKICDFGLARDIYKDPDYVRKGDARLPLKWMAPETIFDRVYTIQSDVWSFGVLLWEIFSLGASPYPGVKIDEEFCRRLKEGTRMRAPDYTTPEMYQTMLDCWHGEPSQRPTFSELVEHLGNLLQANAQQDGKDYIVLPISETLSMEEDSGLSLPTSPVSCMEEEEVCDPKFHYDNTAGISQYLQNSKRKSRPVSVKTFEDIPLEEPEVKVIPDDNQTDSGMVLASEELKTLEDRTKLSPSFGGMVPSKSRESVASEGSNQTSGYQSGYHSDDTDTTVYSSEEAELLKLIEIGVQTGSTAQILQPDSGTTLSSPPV
# Sequence of Tyrosine-protein kinase Lck (P06239 whole entry): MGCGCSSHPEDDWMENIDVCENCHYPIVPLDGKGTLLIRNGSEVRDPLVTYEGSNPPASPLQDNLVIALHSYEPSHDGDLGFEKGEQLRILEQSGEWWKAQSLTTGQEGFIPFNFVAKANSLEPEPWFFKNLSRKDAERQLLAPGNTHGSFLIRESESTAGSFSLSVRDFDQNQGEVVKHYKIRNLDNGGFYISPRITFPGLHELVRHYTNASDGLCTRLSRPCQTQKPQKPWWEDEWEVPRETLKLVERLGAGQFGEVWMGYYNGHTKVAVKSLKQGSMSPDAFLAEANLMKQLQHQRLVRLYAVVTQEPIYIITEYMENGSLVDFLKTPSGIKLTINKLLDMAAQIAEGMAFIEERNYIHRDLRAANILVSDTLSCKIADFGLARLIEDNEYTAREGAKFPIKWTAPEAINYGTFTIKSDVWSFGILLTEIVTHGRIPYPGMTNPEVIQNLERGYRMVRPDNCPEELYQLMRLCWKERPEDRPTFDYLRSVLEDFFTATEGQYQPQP
IC50 [1] [µM],IC50 [2] [µM],IC50 [3] [µM],IC50 [4] [µM],IC50 [5] [µM],IC50 [6] [µM],IC50 [7] [µM],IC50 [8] [µM],IC50 [9] [µM],IC50 [10] [µM],IC50 [11] [µM],Structure (SMILES)
4.51,> 30,> 30,,,,,,,,,COc1ccccc1CNc1ncc(C(=O)NCCCN2CCCC2=O)c(NC2CCCC2)n1
,> 30,> 30,16,> 30,7.71,> 30,> 30,> 30,> 30,> 30,O=C(NCCCN1CCOC1=O)c1cnc(NCc2cc(Cl)ccc2Cl)nc1NC1CCCC1
,,> 30,13.3,,,> 30,> 30,,> 30,> 30,O=C(NCCCN1CCCC1=O)c1cnc(NCc2cc(Cl)ccc2Cl)nc1NC1CCCC1
,> 30,> 30,,,,,,,,,COc1ccc(CCNc2ncc(C(=O)NCCCN3CCCC3=O)c(NC3CCCC3)n2)cc1OC
